Read-outs that look alike come from different tables or passages of the source. Positions of bridges follow the written chain, without caps; N, C: chain ends. Residues, ends and D or L forms follow the SMILES beside them. No end group written: not given here.
Legend:
Assay type in all cases: cell-based
[1] = test system: mouse neuroblastoma cell line (N1E-115); settings: for antitumor activity (tumor cell proliferation-inhibiting activity), in words: N1E-115, 50 or 100 μM, summary of Table 3; for A450(-A620) After 24 hers: WST-8 absorbance after 24 hours
Method: Some of the sample peptides obtained in Example 1 were tested for antitumor activity against target cultured tumor cells. Details of the assay are as described below.
(§1) As the tumor cells tested, a commercial mouse neuroblastoma cell line (N1E-115) was used. The cell line was cultured beforehand in a DMEM medium (i.e. Dulbecco MEM medium (DMEM medium, a Gibco product) containing 10% fetal bovine serum (FBS, a Gibco product), 2 mM of L-glutamine, 50 unit/mL of penicillin, and 50 μg/mL of streptomycin), and the number of cells per well in a 96-well plate was adjusted to approximately 5×10^3. The volume of the medium for this was 100 μL per well.
(§2) Subsequently, the stock solution of each sample peptide shown in Table 3 was added to each well to a peptide concentration in the well of 50 μM or 100 μM.
(§3) After the sample peptides were added as described above, the 96-well plate was placed in a CO2 incubator and cultured without agitation at 37° C. under 5% CO2. At the time of the peptide addition (at the start of treatment) and at 6 hours or 24 hours from the peptide addition and the start of incubation, the viability status of the cultured cells tested was analyzed with a commercial colorimetric assay kit. In particular, to each cell-culturing well, “water-soluble tetrazolium salt (WST-8)” was added as a colorimetric reagent; after two hours of incubation following the addition, the cell culture medium supplied with the colorimetric reagent was collected; and the level of inhibition of cell proliferation was evaluated by colorimetry, measuring the absorbance at a wavelength of 450 nm (values corrected with the absorbance at a wavelength of 620 nm, A450-A620) based on reduction of tetrazolium salt. Based on the absorbance at the time of the sample peptide addition (at the start of treatment), the percent decrease in the absorbance after 6 hours or 24 hours was determined as the cell proliferation inhibition rate (%).

[2] = test system: human alveolar basal epithelial adenocarcinoma cells, A549; settings: for A450(-A620) After 24 hers: A549, peptide 50 μM, WST-8 absorbance after 24 hours; for antitumor activity (tumor cell proliferation-inhibiting activity), in words: A549, 50 μM, 24 hours, summary of Table 5
Method: as §1, §2, §3
Cells forming a […] (human alveolar basal epithelial adenocarcinoma cells, A549) were substituted for the tumor cells tested and the same test as Example 2 described above was carried out. In the present example, the peptides of Samples 1 to 13, 15 to 22, 24, 29, 35 and 40 were used.

[3] = test system: HeLa cells (HeLa S3); settings: WST-8 absorbance after 24 hours
Method: as §1, §2, §3
HeLa cells (HeLa S3) were substituted for the tumor cells tested and the same test as Example 2 described above was carried out. In the present example, the peptides of Samples 1 to 7, 9, 10, 13, 16, 21 and 35 were used.

| Compound | antitumor activity (tumor cell proliferation-inhibiting activity), in words [1] | A450(-A620) After 24 hers ([1]; N1E-115, peptide 50 μM) | A450(-A620) After 24 hers ([1]; N1E-115, peptide 100 μM) | A450(-A620) After 24 hers [2] | antitumor activity (tumor cell proliferation-inhibiting activity), in words [2] | A450(-A620) After 24 hers ([3]; HeLa S3, peptide 50 μM) | A450(-A620) After 24 hers ([3]; HeLa S3, peptide 100 μM) |
| --- | --- | --- | --- | --- | --- | --- | --- |
| GPHHYWYHLRLPKKRTLRKNDRKKR [Sample 38] | high antitumor activity | 0.4605 | 0.3592 |  |  |  |  |
| CC[C@H](C)[C@@H]1NC(=O)[C@H](Cc2c[nH]cn2)NC(=O)[C@@H](N)CSSC[C@@H](C(=O)O)NC(=O)[C@H](C)NC(=O)[C@H](CCC(N)=O)NC(=O)[C@H](C)NC(=O)[C@H](Cc2c[nH]cn2)NC(=O)[C@H](CC(C)C)NC1=O [Sample 8, CHILHAQAC] (H-CHILHAQAC-OH; disulfide 1-9; N-terminus and C-terminus assumed) |  |  |  | 1.7885 |  |  |  |
| EFEYFHPATFRL [Sample 20, EFEYFHPATFRL] |  | 0.5772 | 0.6481 | 1.8115 |  |  |  |
| CSCC[C@@H]1NC(=O)[C@@H]2CCCN2C(=O)[C@H](CCCNC(=N)N)NC(=O)[C@H](CCCCN)NC(=O)[C@H](CCC(=O)O)NC(=O)[C@H](Cc2ccc(O)cc2)NC(=O)[C@H](CO)NC(=O)[C@@H](N)CSSC[C@@H](C(=O)O)NC1=O [Sample 11, CSYEKRPMC] (H-CSYEKRPMC-OH; disulfide 1-9; N-terminus and C-terminus assumed) |  |  |  | 1.6741 | high antitumor activity |  |  |
| C[C@@H]1NC(=O)[C@H](Cc2c[nH]c3ccccc23)NC(=O)[C@H](Cc2c[nH]cn2)NC(=O)CNC(=O)[C@H]([C@@H](C)O)NC(=O)[C@@H](N)CSSC[C@@H](C(=O)O)NC(=O)[C@H](CCC(=O)O)NC(=O)[C@H](CO)NC1=O [Sample 10, CTGHWASEC] (H-CTGHWASEC-OH; disulfide 1-9; N-terminus and C-terminus assumed) |  |  |  | 1.7472 |  | 0.0909 | 0.0915 |
| CC(C)C[C@H](NC(=O)[C@@H](NC(=O)[C@H](CCCNC(=N)N)NC(=O)[C@H](CCCCN)NC(=O)[C@H](CCCCN)NC(=O)[C@@H]1CSSC[C@H](N)C(=O)NCC(=O)N[C@@H](Cc2c[nH]cn2)C(=O)N[C@@H](CCCNC(=N)N)C(=O)N2CCC[C@H]2C(=O)N[C@@H](Cc2ccc(O)cc2)C(=O)N[C@@H](CCC(N)=O)C(=O)N[C@@H](Cc2ccc(O)cc2)C(=O)N1)[C@@H](C)O)C(=O)N[C@@H](CCCNC(=N)N)C(=O)N[C@@H](CCCCN)C(=O)N[C@@H](CC(N)=O)C(=O)N[C@@H](CC(=O)O)C(=O)N[C@@H](CCCNC(=N)N)C(=O)N[C@@H](CCCCN)C(=O)N[C@@H](CCCCN)C(=O)N[C@@H](CCCNC(=N)N)C(=O)O [Sample 26] (H-CGHRPYQYCKKRTLRKNDRKKR-OH; disulfide 1-9; N-terminus and C-terminus assumed) | high antitumor activity | 0.4550 | 0.3643 |  |  |  |  |
| CSCC[C@@H]1NC(=O)[C@H](CCCCN)NC(=O)[C@H]([C@@H](C)O)NC(=O)[C@H](CCC(N)=O)NC(=O)CNC(=O)[C@H](CC(C)C)NC(=O)[C@@H](N)CSSC[C@@H](C(=O)O)NC(=O)[C@H](CCCNC(=N)N)NC1=O [Sample 3, CLGQTKMRC] (H-CLGQTKMRC-OH; disulfide 1-9; N-terminus and C-terminus assumed) |  |  |  | 1.7022 | high antitumor activity | 0.1194 | 0.0997 |
| SLLPHSNHAKHY [Sample 19, SLLPHSNHAKHY] |  |  |  | 1.8271 |  |  |  |
| TPSLPPTMFRLT [Sample 15, TPSLPPTMFRLT] |  |  |  | 1.6022 |  |  |  |
| CC(C)C[C@H](NC(=O)[C@@H](NC(=O)[C@H](CCCNC(=N)N)NC(=O)[C@H](CCCCN)NC(=O)[C@H](CCCCN)NC(=O)[C@@H]1CSSC[C@H](N)C(=O)N[C@@H](CO)C(=O)N[C@@H](CO)C(=O)N[C@@H](C)C(=O)N[C@@H]([C@@H](C)O)C(=O)NCC(=O)N[C@@H](CCCCN)C(=O)N[C@@H](CO)C(=O)N1)[C@@H](C)O)C(=O)N[C@@H](CCCNC(=N)N)C(=O)N[C@@H](CCCCN)C(=O)N[C@@H](CC(N)=O)C(=O)N[C@@H](CC(=O)O)C(=O)N[C@@H](CCCNC(=N)N)C(=O)N[C@@H](CCCCN)C(=O)N[C@@H](CCCCN)C(=O)N[C@@H](CCCNC(=N)N)C(=O)O [Sample 23] (H-CSSATGKSCKKRTLRKNDRKKR-OH; disulfide 1-9; N-terminus and C-terminus assumed) | high antitumor activity | 0.4127 | 0.3841 |  |  |  |  |
| CC[C@H](C)[C@@H]1NC(=O)[C@H](CCC(=O)O)NC(=O)[C@@H](N)CSSC[C@@H](C(=O)N[C@@H](CCCCN)C(=O)N[C@@H](CCCCN)C(=O)N[C@@H](CCCNC(=N)N)C(=O)N[C@H](C(=O)N[C@@H](CC(C)C)C(=O)N[C@@H](CCCNC(=N)N)C(=O)N[C@@H](CCCCN)C(=O)N[C@@H](CC(N)=O)C(=O)N[C@@H](CC(=O)O)C(=O)N[C@@H](CCCNC(=N)N)C(=O)N[C@@H](CCCCN)C(=O)N[C@@H](CCCCN)C(=O)N[C@@H](CCCNC(=N)N)C(=O)O)[C@@H](C)O)NC(=O)[C@H]([C@@H](C)O)NC(=O)[C@H](CCCNC(=N)N)NC(=O)[C@H](CCCCN)NC(=O)[C@H](C)NC(=O)[C@H](CO)NC1=O [Sample 29] (H-CEISAKRTCKKRTLRKNDRKKR-OH; disulfide 1-9; N-terminus and C-terminus assumed) |  |  |  | 1.6577 | high antitumor activity |  |  |
| GPHLGMNQRRRPKKRTLRKNDRKKR [Sample 43] | high antitumor activity | 0.4784 | 0.4110 |  |  |  |  |
| CC(C)C[C@H](NC(=O)[C@@H](NC(=O)[C@H](CCCNC(=N)N)NC(=O)[C@H](CCCCN)NC(=O)[C@H](CCCCN)NC(=O)[C@@H]1CSSC[C@H](N)C(=O)N[C@@H](CC(C)C)C(=O)N[C@@H](C)C(=O)N2CCC[C@H]2C(=O)N[C@@H](CO)C(=O)N2CCC[C@H]2C(=O)N[C@@H](CO)C(=O)N[C@@H](CCCCN)C(=O)N1)[C@@H](C)O)C(=O)N[C@@H](CCCNC(=N)N)C(=O)N[C@@H](CCCCN)C(=O)N[C@@H](CC(N)=O)C(=O)N[C@@H](CC(=O)O)C(=O)N[C@@H](CCCNC(=N)N)C(=O)N[C@@H](CCCCN)C(=O)N[C@@H](CCCCN)C(=O)N[C@@H](CCCNC(=N)N)C(=O)O [Sample 24] (H-CLAPSPSKCKKRTLRKNDRKKR-OH; disulfide 1-9; N-terminus and C-terminus assumed) | high antitumor activity | 0.3492 | 0.3198 | 1.5820 | high antitumor activity |  |  |
| QSPVNHHYHYHI [Sample 17, QSPVNHHYHYHI] |  | 0.6019 | 0.5818 | 1.9428 |  |  |  |
| EFEYFHPATFRLKKRTLRKNDRKKR [Sample 42] | high antitumor activity | 0.5145 | 0.4114 |  |  |  |  |
| NMTTYPMHNNTVKKRTLRKNDRKKR [Sample 40] |  |  |  | 1.5890 | high antitumor activity |  |  |
| CC(C)C[C@@H]1NC(=O)[C@@H](N)CSSC[C@@H](C(=O)O)NC(=O)[C@H](CO)NC(=O)[C@H]([C@@H](C)O)NC(=O)[C@H](Cc2ccc(O)cc2)NC(=O)[C@H](CO)NC(=O)[C@H](CCCCN)NC(=O)[C@H]([C@@H](C)O)NC1=O [Sample 12, CLTKSYTSC] (H-CLTKSYTSC-OH; disulfide 1-9; N-terminus and C-terminus assumed) |  |  |  | 1.9165 |  |  |  |
| GAVTYSRISGQY [Sample 22, GAVTYSRISGQY] |  |  |  | 1.9711 |  |  |  |
| NMTTYPMHNNTV [Sample 18, NMTTYPMHNNTV] |  | 0.6054 | 0.5999 | 1.6767 |  |  |  |

Reference: patent US9296787B2, “Antitumor peptide and use thereof” (priority 2011, dated 2016)
